Data published in patent publication US20230405003A1, “APPLICATION OF THYMIDINE DERIVATIVE IN PREPARATION OF DRUGS” (ONQUALITY PHARMACEUTICALS CHINA LTD., priority 2020, published 2023).

Columns and labels:
[1] = test system: human colon cancer cell HCT116 xenograft; test: Effect of thymidine derivative gel on therapeutical effect of capecitabine, HCT116 xenograft nude mice; assay type: in vivo, mouse; settings: oral capecitabine 1.5 mmol/kg, 0.5% or 2% T1 gel on the back once per day, 14 days
Procedure: A BALB/C nude mouse (human colon cancer cell HCT116 xenograft) model was established. After the model was stable, the model mice were divided into four groups (in which the average tumor size of each of the 4 groups was kept as consistent as possible). Except the blank group (containing 5 mice), there were 10 mice in each group, which were subject to gavage and application experiments.
Capecitabine was dissolved in a mixed solution of castor oil:ethanol=1:1 (volume ratio). Prior to gavage, the mixture was diluted with PBS to the desired concentration (diluted for about 3 times with PBS solution). […]
A: Group of blank: 5 mice with tumors, no gavage and no drug application; B: blank group: 10 mice with tumors, oral gavage with capecitabine (1.5 mmol/kg), application with blank gel on the back (once per day for 14 days); C: 0.5% T1 group: 10 mice with tumors, oral gavage of capecitabine, application with 0.5% T1 gel (administration method and frequency are the same as those in group B); D: 2% T1 gel group: 10 mice with tumors, oral gavage of capecitabine, application of 2% T1 gel (administration method and frequency are the same as those in group B). […] The tumor size was measured and recorded every 2 days. After 14 days of the experiment, the mice were dissected to take out the tumor, which was weighed and recorded.

[2] = test system: hand-foot syndrome caused by Cytarabine in rats; test: Rat model of hand-foot syndrome caused by cytarabine, gel application; assay type: in vivo; settings: Cytarabine 120 mg/kg twice per day, 30 days
Procedure: (§1) After SD rats were fed and adapted for one week (about 200 g), the rats were divided into groups, with 10 rats in each group. Then, the rats were subject to gavage administration. Capecitabine was dissolved in a 1:1 mixed solution of castor oil and ethanol and diluted for three times with PBS buffer. After gavage, the rats were fixed with a fixed cylinder, and a gel of thymidine derivative (or a compounded gel of thymidine derivative and uridine derivative) was applied to double hind paws (about 1 cm*3 cm) of the rats in group of administration (the types and concentrations are shown in Table 4), and a blank gel was applied to the group of blank (as a blank control). After approximately 4 hours of application, the rats were released after 4 hours, wiped with clean water to remove any residual drug at the application site, and allowed back to the cage. The thymidine derivative gel (or the compounded gel of thymidine derivative and uridine derivative) was administered with gavage every day. The gavage and application tests are repeated daily until the group of blank has developed obvious hand-foot syndrome.
(§2) The effects of thymidine derivative or a combination of thymidine derivative and uridine derivative on the chemotherapeutic drug-induced hand-foot syndrome in a rat model were tested according to the method in Examples 30-40. At the same time, paws of rats after treatment with the drug were taken and observed for their inflammation by hematoxylin-eosin staining (HE) and immunohistochemical staining (IHC).
(§3) The test thymidine derivative or the combination of thymidine derivative and uridine derivative, as well as the final concentration of the test compounds were shown in Table 8. Table 8 lists the animal experiment combination of a chemotherapeutical drug and the thymidine derivative gel (or the compound gel of thymidine derivative and uridine derivative) and the corresponding experimental results (wherein, the data in the column of control rate=the occurrence rate of hand-foot syndrome in Group of blank—the occurrence rate of hand-foot syndrome in Group of administration).

[3] = test system: hand-foot syndrome caused by Doxorubicin in rats; test: Rat model of hand-foot syndrome caused by doxorubicin, gel application; assay type: in vivo; settings: Doxorubicin 7 mg/kg tail intravenous injection once every three days for 20 days, gel 3 wt%, 30 days
Procedure: as §1, §2, §3

[4] = test system: hand-foot syndrome caused by Acelarin (NUC-1031) in rats; test: Rat model of hand-foot syndrome caused by Acelarin (NUC-1031), gel application; assay type: in vivo; settings: Acelarin (NUC-1031) 130 mg/kg intraperitoneal injection twice a week, gel 3 wt%, 30 days
Procedure: as §1, §2, §3

Row | Compound | tumor volume with T1 gel versus blank gel [1] | Control Rate Forepaws ([2]; gel 3 wt%) | Control Rate Hindpaws ([2]; gel 3 wt%) | Control Rate Forepaws [3] | Control Rate Hindpaws [3] | Control Rate Forepaws [4] | Control Rate Hindpaws [4] | Control Rate Forepaws ([2]; gel 2 wt%) | Control Rate Hindpaws ([2]; gel 2 wt%)
1 | CC(=O)OCC1OC(n2cc(C)c(=O)[nH]c2=O)CC1OC(C)=O (stereo not shown) [T1] | close to or slightly smaller than that of Group of blank gel |  |  |  |  |  |  |  | 
2 | COc1ccc2cc([C@H](C)C(=O)OC[C@H]3O[C@@H](n4cc(C)c(=O)[nH]c4=O)C[C@@H]3O)ccc2c1 [T25] |  | 42.86% | 57.14% | 37.50% | 62.50% | 57.14% | 42.86% |  | 
3 | Cc1cn([C@H]2C[C@H](O)[C@@H](COC(=O)[C@H](C)c3ccc(CC(C)C)cc3)O2)c(=O)[nH]c1=O [T32] |  |  |  |  |  | 50% | 62.50% | 33.33% | 33.33%
4 | CC1=C(CC(=O)OC[C@H]2O[C@@H](n3cc(C)c(=O)[nH]c3=O)C[C@@H]2O)c2cc(F)ccc2/C1=C\c1ccc([S+](C)[O-])cc1 (stereo partly shown) [T40] |  |  |  |  |  | 50% | 62.50% |  | 
